# Article PMC11345841, “Exploring 2-Sulfonylpyrimidine Warheads as Acrylamide Surrogates for Targeted Covalent Inhibition: A BTK Story” (Journal of Medicinal Chemistry, 2024)
# Where two headings read alike, the source gives them in different places.
# Experiments:
# [1] = target: BTK, full length (2–659) (Homo sapiens, UniProt Q06187); test: PhosphoSens enzymatic IC50 (AssayQuant); type: biochemical; details: for IC50: 1 nM BTK, 1.0 mM ATP; for fold change, 1 nM BTK: IC50 0 min vs 60 min preincubation
# Chain of BTK, full length (2–659) (Q06187 2-659): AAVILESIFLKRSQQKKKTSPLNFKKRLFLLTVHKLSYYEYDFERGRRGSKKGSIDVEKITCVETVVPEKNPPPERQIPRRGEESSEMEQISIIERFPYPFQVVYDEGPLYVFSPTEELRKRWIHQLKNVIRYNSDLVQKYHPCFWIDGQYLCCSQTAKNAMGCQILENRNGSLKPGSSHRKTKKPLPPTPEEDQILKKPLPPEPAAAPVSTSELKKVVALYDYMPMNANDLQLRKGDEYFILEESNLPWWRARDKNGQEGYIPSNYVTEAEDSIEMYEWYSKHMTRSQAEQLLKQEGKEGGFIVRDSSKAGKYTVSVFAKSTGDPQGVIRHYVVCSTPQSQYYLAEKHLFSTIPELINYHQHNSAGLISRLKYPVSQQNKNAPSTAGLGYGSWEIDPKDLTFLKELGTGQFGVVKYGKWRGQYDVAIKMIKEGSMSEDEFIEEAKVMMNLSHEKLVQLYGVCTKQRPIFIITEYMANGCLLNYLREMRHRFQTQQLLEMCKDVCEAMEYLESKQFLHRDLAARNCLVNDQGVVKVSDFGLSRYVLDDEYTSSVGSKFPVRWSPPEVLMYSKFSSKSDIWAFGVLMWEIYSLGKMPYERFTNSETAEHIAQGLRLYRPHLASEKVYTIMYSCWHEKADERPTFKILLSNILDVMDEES
# Text: (§1) Biochemical enzymatic IC50 data were generated by AssayQuant Technologies (Marlborough, MA) using the PhosphoSens Platform. […] Reaction rate versus log [inhibitor concentration] data were fitted to the four-parameter logistic equation [drawing 1]
# [2] = target: T1, EGFR, cytoplasmic domain (669–1210) (Homo sapiens, UniProt P00533); test: PhosphoSens enzymatic IC50 (AssayQuant); type: biochemical; details: no preincubation
# T1 construct: GST (N); purchased Carna Biosciences
# T1 sequence (P00533 669-1210): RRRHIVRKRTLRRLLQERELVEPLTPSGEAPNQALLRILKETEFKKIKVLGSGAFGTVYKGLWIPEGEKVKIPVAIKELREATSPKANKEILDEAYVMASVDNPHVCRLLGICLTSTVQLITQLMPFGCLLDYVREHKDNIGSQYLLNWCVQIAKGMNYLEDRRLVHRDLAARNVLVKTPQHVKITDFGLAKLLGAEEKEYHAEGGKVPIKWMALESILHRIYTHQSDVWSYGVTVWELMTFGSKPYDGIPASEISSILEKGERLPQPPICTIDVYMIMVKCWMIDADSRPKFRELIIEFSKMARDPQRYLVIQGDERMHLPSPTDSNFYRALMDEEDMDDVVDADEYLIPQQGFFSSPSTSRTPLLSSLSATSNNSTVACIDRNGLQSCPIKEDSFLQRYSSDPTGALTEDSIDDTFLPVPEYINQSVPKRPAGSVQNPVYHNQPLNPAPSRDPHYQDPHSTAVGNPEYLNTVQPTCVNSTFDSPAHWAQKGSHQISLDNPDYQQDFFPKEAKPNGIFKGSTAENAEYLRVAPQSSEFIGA
# Text: as §1
# [3] = target: T2, ERBB3 (Homo sapiens, UniProt P21860); test: KINOMEscan ScanTK; type: binding; details: for % of control difference from compound Ib at 1 µM / remaining binding at 1 µM: ERBB3
# T2 construct: purchased Eurofins DiscoverX KINOMEscan (scanTK)
# T2 sequence (P21860 20-1342): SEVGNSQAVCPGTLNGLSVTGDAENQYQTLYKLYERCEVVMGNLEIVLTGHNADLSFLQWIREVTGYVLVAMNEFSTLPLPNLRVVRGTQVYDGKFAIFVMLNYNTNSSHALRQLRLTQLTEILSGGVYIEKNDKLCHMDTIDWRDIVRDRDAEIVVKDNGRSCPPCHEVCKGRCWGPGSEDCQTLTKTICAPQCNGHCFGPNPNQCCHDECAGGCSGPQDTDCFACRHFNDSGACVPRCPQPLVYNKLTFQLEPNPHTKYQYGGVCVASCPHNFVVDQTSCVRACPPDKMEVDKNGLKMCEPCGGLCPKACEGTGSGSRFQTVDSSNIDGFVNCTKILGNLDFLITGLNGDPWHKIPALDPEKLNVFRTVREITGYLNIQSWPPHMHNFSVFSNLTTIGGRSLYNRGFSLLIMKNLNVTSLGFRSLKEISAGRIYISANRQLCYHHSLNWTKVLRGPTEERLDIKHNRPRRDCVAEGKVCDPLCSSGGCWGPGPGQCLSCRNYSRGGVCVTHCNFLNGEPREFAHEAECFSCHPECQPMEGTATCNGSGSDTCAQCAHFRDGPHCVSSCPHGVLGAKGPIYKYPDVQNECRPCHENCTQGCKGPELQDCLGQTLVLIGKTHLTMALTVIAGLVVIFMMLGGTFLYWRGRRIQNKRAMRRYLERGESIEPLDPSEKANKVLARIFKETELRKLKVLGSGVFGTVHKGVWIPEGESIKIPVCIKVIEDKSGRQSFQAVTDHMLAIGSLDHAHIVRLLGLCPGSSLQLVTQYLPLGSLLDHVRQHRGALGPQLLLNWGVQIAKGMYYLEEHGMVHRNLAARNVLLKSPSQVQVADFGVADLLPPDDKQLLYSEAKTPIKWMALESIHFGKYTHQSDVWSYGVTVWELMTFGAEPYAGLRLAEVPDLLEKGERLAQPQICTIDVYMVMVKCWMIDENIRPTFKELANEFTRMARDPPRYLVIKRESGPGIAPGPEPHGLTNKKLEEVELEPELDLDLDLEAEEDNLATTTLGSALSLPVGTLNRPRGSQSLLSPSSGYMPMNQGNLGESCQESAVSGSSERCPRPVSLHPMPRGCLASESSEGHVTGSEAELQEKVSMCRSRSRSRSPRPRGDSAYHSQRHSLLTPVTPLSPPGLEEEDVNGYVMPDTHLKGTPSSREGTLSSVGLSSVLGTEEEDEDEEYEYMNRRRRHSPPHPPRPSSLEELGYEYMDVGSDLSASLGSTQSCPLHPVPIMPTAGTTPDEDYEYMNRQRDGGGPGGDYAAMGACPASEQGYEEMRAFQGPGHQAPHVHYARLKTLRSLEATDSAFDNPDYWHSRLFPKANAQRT
# [4] = target: T3, FGFR4 (Homo sapiens, UniProt P22455); test: KINOMEscan ScanTK; type: binding
# T3 construct: purchased Eurofins DiscoverX KINOMEscan (scanTK)
# T3 sequence (P22455 22-802): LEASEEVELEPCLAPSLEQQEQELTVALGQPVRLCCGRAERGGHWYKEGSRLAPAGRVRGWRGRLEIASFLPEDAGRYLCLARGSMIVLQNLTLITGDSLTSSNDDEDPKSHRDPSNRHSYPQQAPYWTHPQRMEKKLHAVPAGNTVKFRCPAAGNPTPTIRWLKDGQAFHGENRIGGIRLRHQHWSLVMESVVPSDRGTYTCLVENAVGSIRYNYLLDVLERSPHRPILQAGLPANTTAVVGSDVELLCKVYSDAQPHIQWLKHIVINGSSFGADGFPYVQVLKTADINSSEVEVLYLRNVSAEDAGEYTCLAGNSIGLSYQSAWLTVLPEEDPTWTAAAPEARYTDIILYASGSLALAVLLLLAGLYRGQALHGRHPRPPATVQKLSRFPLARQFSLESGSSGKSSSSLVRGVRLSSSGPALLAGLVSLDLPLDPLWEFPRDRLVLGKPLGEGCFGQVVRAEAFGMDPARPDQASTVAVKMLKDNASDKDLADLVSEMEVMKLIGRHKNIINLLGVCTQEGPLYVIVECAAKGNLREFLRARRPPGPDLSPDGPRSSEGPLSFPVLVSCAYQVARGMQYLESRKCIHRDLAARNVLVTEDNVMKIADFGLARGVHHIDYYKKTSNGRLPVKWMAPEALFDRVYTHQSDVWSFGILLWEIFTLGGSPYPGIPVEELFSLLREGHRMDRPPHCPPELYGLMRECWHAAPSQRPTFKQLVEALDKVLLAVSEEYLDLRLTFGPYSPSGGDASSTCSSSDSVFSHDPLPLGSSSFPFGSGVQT
# [5] = system: FLT3(ITD,D835V); test: KINOMEscan ScanTK; type: binding; details: for % difference (compound - Ib %Control) / %Control: @1000nM
# [6] = target: T4, KIT(V559D,T670I) (Homo sapiens, UniProt P10721, T670I/V559D); test: KINOMEscan ScanTK; type: binding
# T4 construct: purchased Eurofins DiscoverX KINOMEscan (scanTK)
# [7] = target: T5, PDGFRA (Homo sapiens, UniProt P16234); test: KINOMEscan ScanTK; type: binding
# T5 construct: purchased Eurofins DiscoverX KINOMEscan (scanTK)
# T5 sequence (P16234 24-1089): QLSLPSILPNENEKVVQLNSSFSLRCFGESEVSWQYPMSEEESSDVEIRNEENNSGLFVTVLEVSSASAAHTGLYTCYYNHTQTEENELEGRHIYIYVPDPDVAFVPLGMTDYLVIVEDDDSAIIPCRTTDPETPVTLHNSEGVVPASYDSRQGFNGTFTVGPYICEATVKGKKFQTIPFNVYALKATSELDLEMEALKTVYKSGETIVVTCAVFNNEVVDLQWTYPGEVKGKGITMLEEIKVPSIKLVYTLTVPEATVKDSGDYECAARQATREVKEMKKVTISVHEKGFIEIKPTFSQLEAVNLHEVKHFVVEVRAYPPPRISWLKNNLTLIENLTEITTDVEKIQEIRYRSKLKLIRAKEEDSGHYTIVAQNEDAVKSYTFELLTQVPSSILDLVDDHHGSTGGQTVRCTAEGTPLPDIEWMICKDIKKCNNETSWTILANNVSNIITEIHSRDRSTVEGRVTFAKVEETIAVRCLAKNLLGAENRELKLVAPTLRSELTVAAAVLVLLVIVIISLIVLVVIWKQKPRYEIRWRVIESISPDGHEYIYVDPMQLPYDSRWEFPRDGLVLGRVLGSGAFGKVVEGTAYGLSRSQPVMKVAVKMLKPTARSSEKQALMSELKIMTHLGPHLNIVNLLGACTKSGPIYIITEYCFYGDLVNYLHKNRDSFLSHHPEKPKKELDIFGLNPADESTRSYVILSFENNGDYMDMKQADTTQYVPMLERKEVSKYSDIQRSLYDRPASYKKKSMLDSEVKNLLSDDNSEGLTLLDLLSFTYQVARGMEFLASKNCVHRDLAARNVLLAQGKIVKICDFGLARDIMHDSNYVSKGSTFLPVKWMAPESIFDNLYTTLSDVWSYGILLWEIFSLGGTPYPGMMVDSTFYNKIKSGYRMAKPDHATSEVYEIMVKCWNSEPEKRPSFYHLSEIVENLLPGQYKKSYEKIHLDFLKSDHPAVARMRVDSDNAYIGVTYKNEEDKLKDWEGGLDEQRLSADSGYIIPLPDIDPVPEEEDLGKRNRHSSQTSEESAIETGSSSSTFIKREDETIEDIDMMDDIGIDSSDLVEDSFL
# [8] = target: T6, TNK1 (Homo sapiens, UniProt Q13470); test: KINOMEscan ScanTK; type: binding
# T6 construct: purchased Eurofins DiscoverX KINOMEscan (scanTK)
# T6 sequence (Q13470 1-666): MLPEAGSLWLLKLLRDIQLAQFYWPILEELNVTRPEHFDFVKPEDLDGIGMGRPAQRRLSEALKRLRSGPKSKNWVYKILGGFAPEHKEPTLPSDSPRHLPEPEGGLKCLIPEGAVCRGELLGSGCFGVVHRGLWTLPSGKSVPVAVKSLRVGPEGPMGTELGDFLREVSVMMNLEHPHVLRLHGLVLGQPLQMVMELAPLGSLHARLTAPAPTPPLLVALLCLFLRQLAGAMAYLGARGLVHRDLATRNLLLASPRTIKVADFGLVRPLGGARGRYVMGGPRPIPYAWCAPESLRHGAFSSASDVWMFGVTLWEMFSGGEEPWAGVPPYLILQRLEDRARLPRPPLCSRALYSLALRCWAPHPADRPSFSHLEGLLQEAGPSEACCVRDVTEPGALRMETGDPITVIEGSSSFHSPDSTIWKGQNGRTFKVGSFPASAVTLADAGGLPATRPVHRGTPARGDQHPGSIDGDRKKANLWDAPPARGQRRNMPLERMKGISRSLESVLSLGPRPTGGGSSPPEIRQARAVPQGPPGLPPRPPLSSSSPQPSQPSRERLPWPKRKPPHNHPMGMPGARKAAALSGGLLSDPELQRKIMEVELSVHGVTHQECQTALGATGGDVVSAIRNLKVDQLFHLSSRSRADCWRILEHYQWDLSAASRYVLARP
# [9] = target: T7, TYRO3 (Homo sapiens, UniProt Q06418); test: KINOMEscan ScanTK; type: binding
# T7 construct: purchased Eurofins DiscoverX KINOMEscan (scanTK)
# T7 sequence (Q06418 41-890): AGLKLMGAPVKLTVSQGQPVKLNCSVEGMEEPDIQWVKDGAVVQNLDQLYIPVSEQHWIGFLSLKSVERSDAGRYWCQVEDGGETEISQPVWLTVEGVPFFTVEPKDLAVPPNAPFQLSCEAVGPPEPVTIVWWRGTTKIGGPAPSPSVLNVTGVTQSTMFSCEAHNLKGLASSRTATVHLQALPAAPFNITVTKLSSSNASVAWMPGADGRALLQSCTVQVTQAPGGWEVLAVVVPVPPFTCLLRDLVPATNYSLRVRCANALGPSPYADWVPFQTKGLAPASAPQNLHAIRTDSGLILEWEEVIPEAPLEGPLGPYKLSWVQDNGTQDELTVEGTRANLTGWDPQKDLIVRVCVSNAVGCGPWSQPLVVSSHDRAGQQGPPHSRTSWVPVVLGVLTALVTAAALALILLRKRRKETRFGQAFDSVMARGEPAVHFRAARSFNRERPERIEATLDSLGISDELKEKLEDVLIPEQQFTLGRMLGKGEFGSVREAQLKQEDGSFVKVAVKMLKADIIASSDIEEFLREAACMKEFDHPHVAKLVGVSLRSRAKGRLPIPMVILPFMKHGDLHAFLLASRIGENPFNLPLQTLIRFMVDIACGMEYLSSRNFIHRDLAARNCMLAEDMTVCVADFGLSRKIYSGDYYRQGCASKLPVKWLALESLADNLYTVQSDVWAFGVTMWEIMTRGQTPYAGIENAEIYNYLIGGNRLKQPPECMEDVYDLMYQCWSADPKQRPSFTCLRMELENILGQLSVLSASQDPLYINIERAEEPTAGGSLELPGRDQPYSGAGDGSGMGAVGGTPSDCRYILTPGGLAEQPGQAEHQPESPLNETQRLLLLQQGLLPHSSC
# [10] = 0 min preincubation IC50 (nM), 0 min preincubation
# [11] = 60 min preincubation IC50 (nM), 60 min preincubation
Compound,"IC50 [1, 10] [nM]","IC50 [1, 11] [nM]",% of control difference from compound Ib at 1 µM ([3]; @1000nM) [%],"remaining binding at 1 µM ([3]; @1000nM, read-out: %Control) [%]",remaining binding at 1 µM ([3]; read-out: %Control @1000nM) [%],difference in %Control from compound Ib at 1 µM ([4]; @1000nM) [%],"remaining binding at 1 µM ([4]; @1000nM, read-out: %Control) [%]",remaining binding at 1 µM ([4]; read-out: %Control @1000nM) [%],%Control @1000nM [5] [%],% difference (compound - Ib %Control) [5] [%],%Control [5] [%],difference in %Control versus compound Ib at 1 µM ([6]; @1000nM) [%],"remaining binding at 1 µM ([6]; @1000nM, read-out: %Control) [%]",remaining binding at 1 µM ([6]; read-out: %Control @1000nM) [%],"remaining binding at 1 µM ([7]; @1000nM, read-out: %Control) [%]",remaining binding at 1 µM ([7]; read-out: %Control @1000nM) [%],"remaining binding at 1 µM ([8]; @1000nM, read-out: %Control) [%]",remaining binding at 1 µM ([8]; read-out: %Control @1000nM) [%],"remaining binding at 1 µM ([9]; @1000nM, read-out: %Control) [%]",remaining binding at 1 µM ([9]; read-out: %Control @1000nM) [%],further results
"CNC(=O)c1cnc(S(C)(=O)=O)nc1N1CCCC(n2nc(-c3ccc(Oc4ccccc4)cc3)c3c(N)ncnc32)C1 (stereo not drawn) [Compound 8d, 4-(3-(4-Amino-3-(4-phenoxyphenyl)-1H-pyrazolo[3,4-d]pyrimidin-1-yl)piperidin-1-yl)-N-methyl-2-(methylsulfonyl)pyrimidine-5-carboxamide]",3.6,1.2,8.9,8.9,8.9,4,100,100,70,-7,70,11,79,79,78,78,97,97,32,32,"fold change, 1 nM BTK [1]: 3.1; 0 min IC50 (nM), 3 nM EGFR [2]: none of the compounds, 8a, 8b, or 8d, exhibited measurable inhibition; IC50 [2]: > 1000 nM"
"CCOC(=O)c1cnc(S(C)(=O)=O)nc1N1CCC[C@@H](n2nc(-c3ccc(Oc4ccccc4)cc3)c3c(N)ncnc32)C1 [Compound 8c, Ethyl (R)-4-(3-(4-Amino-3-(4-phenoxyphenyl)-1H-pyrazolo[3,4-d]pyrimidin-1-yl)piperidin-1-yl)-2-(methylsulfonyl)pyrimidine-5-carboxylate]",–,–,39,39,39,-5,91,91,69,-8,69,-34,34,34,91,91,81,81,40,40,–
"Cc1cnc(S(C)(=O)=O)nc1N1CCCC(n2nc(-c3ccc(Oc4ccccc4)cc3)c3c(N)ncnc32)C1 (stereo not drawn) [Compound 8a, 1-(1-(5-Methyl-2-(methylsulfonyl)pyrimidin-4-yl)piperidin-3-yl)-3-(4-phenoxyphenyl)-1H-pyrazolo[3,4-d]pyrimidin-4-amine]",6,0.31,0,0,0,1,97,97,78,1,78,0,68,68,72,72,91,91,40,40,"fold change, 1 nM BTK [1]: 19.6; 0 min IC50 (nM), 3 nM EGFR [2]: none of the compounds, 8a, 8b, or 8d, exhibited measurable inhibition; IC50 [2]: > 1000 nM"
"C=CC(=O)N1CCC[C@@H](n2nc(-c3ccc(Oc4ccccc4)cc3)c3c(N)ncnc32)C1 [Compound 1g, Ibrutinib, reference compound]",–,–,–,0,0,–,96,96,77,–,77,–,68,68,49,49,93,93,34,34,"inhibition at 1 µM ([3]; read-out: % inhibition, ERBB3): > 99%"
"COC(=O)c1cnc(S(C)(=O)=O)nc1N1CCCC(n2nc(-c3ccc(Oc4ccccc4)cc3)c3c(N)ncnc32)C1 (stereo not drawn) [Compound 8b, Methyl 4-(3-(4-Amino-3-(4-phenoxyphenyl)-1H-pyrazolo[3,4-d]pyrimidin-1-yl)piperidin-1-yl)-2-(methylsulfonyl)pyrimidine-5-carboxylate]",79,6.3,2.3,2.3,2.3,-4,92,92,93,16,93,24,92,92,90,90,88,88,33,33,"fold change, 1 nM BTK [1]: 12.5; 0 min IC50 (nM), 3 nM EGFR [2]: none of the compounds, 8a, 8b, or 8d, exhibited measurable inhibition; IC50 [2]: > 1000 nM"
